Data on two compounds can be found in US4109008A, “Hydrazine derivatives useful as anti-hypertensives” (Hexachimie, priority 1976, dated 1978).

Each structure is given as a SMILES string.

This assay deals with male rats exhibiting a spontaneous genetically transmissible hypertension. Put plainly: Systolic arterial pressure and rate of heartbeat in spontaneously hypertensive rats after intraperitoneal administration. It counts as in vivo. The settings on record: Rattus norvegicus, ip, 0.5 h, 40 mg/kg given intraperitoneally, T + 30 mins, read-out: percentage variation and mean deviation of the systolic arterial pressure, T + 30 mins. The method, then:
The arterial pressure is measured by a "Narco Bio System" sphygmomanometer. A sleeve is placed over the base of the tail and a detector records the pulse downstream from the sleeve. The sleeve is then inflated until the pulse is stopped, thus indicating the systolic pressure. The rate of heartbeat is also recorded. The products to be studied are converted to a suspension by means of "Tween 80" and administered intraperitoneally in a volume of 1 cm^3 per 100 grams of body weight. The measurements are repeated at regular intervals.

For `C#CCOc1ccccc1C=NNC(=N)N` [Example 1, N-[o-(Prop-2-Y-noxy)-Benzylidene]-N'-Amidino-Hydrazine], the change in vivo at 40 mg/kg was -52 ± 3.4%. Then `Cn1c(=O)n(C)c2cc(C=NNC3=NCCN3)ccc21` [Example 12, N-(1,3-Dimethyl-2-Oxo-5-Benzimidazolylidene)-N'-Imidazolino-Hydrazine], with -39 ± 7.4%.
